Results reported in ChEMBL document CHEMBL1157889, “Peripheral site acetylcholinesterase inhibitors targeting both inflammation and cholinergic dysfunction” (Bioorg Med Chem Lett, 2010).

What was measured:
[1] = Chemical stability assessed as hydrolysis half life in presence of 80% human plasma; assay type: ADME, cell-free
Acetylcholinesterase = Acetylcholinesterase (Electrophorus electricus, UniProt O42275); assay: Inhibition of electric eel AChE by Ellman's method
Acetylcholinesterase, sequence (O42275 whole entry): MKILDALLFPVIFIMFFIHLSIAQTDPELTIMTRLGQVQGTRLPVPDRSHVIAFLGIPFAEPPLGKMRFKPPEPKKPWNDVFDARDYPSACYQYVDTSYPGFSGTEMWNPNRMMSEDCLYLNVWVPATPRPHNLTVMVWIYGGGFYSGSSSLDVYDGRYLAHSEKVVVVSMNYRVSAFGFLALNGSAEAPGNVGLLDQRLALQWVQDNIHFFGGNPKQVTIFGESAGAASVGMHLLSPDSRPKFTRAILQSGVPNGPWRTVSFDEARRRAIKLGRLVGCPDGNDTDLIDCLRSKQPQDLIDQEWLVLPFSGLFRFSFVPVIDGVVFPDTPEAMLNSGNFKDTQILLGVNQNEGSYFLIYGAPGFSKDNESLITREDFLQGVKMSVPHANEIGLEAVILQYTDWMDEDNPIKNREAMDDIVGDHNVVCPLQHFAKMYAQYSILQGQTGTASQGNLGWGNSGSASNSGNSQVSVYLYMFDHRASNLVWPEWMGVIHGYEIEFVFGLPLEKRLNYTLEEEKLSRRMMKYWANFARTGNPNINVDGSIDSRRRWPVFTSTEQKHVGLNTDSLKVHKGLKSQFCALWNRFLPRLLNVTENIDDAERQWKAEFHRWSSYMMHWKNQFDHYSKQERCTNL

COc1ccc2cc([C@H](C)C(=O)OCc3ccc(OC(=O)OCCC(C)(C)C)cc3)ccc2c1
t1/2 [1]: 2.25 h

COc1ccc2cc([C@H](C)C(=O)OCc3ccc(OC(=O)OCC[Si](C)(C)C)cc3)ccc2c1
t1/2 [1]: 4.22 h

CC(C)(C)CCOC(=O)Oc1ccc(COC(=O)Cc2ccccc2Nc2c(Cl)cccc2Cl)cc1
IC50 (Acetylcholinesterase): 510 nM
t1/2 [1]: 5.95 h

CC(C)Cc1ccc(C(C)C(=O)OCc2ccc(OC(=O)OCCC(C)(C)C)cc2)cc1 (centres undefined)
t1/2 [1]: 3.4 h

COc1ccc2c(c1)c(CC(=O)OCc1ccc(OC(=O)OCCC(C)(C)C)cc1)c(C)n2C(=O)c1ccc(Cl)cc1
t1/2 [1]: 7.8 h

CC(C)(C)CCOC(=O)Cc1ccccc1Nc1c(Cl)cccc1Cl
t1/2 [1]: 1.85 h

COc1ccc2cc([C@H](C)C(=O)OCCC(C)(C)C)ccc2c1
t1/2 [1]: 0.633 h

COc1ccc2cc([C@H](C)C(=O)OCC[Si](C)(C)C)ccc2c1
t1/2 [1]: 1.05 h
